Results taken from US9463197B2, “Method for treating abnormal polyglutamine-mediated disease” (NATIONAL TAIWAN NORMAL UNIVERSITY, priority 2013, dated 2016).

Tests used:
[1] = test system: 293 ATXN3/Q75-GFP cells; assay: ATXN3/Q75 aggregation assay (high content analysis); type: cell-based; details: at 100 nM; doxycycline and oxaliplatin 6 days; positive control
Procedure: 293 ATXN3/Q75-GFP cells were plated into 96-well (2×10^4/well) dishes, grown for 24 hr and treated with different concentrations of the trehalose or analogs (100 nM˜100 μM) and suberoylanilide hydroxamic acid (SAHA, Cayman Chemical) for 8 hr. Then, doxycycline (10 μg/mL, BD) was added to the medium in each well to induce ATXN3/Q75-GFP expression for 6 days. Oxaliplatin (5 μM, Sigma) was also added to increase aggregate accumulation through inhibition of cell division. Then, cells were stained with Hoechst 33342 (0.1 μg/mL, Sigma) and aggregation percentage was assessed by high content analysis (HCA) system (ImageXpressMICRO, Molecular Devices), with excitation/emission wavelengths at 482/536 (EGFP).
In the present example, the influences of the trehalose and analogs and HDAC inhibitor SAHA in the ATXN3/Q75-GFP cells were respectively examined. After 6 days of the treatment of doxycycline and oxaliplatin, the fluorescence microscopy images were observed, and aggregation percentage of ATXN3/Q75-GFP cells was assessed by high-content analysis system. The result was shown in FIG. 3, as a positive control, HDAC inhibitor SAHA reduced the ATXN3/Q75 aggregation to 85% (at 100 nM) as compared to untreated cells (100%).

[2] = target: T1, porcine kidney trehalase (Sus scrofa, UniProt I3LIR5); assay: Inhibition of analogs against trehalase activity (glucose from trehalose, HPLC); type: biochemical; details: preincubated 30 min at 37°C
T1 sequence (I3LIR5 24-583): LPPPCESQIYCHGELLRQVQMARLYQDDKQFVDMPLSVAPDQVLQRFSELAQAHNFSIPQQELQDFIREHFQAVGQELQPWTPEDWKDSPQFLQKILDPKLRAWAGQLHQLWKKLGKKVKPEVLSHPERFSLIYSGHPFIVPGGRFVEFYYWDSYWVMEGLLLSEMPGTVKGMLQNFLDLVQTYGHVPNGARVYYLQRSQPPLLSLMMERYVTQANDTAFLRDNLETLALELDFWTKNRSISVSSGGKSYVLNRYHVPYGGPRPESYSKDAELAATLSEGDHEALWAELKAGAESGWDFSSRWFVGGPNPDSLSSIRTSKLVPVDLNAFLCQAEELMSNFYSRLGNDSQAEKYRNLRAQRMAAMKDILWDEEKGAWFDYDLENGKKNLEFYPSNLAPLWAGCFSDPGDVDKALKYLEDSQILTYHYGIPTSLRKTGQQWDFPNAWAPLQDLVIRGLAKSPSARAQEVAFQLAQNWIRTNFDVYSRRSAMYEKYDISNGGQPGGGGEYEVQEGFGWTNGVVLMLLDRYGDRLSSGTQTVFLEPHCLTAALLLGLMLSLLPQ
Procedure: Hydrolysis of trehalose and analogs was tested using porcine kidney trehalase (Sigma-Aldrich, T8778). The standard reaction was performed by adding 0.001 unit of trehalase into 50 μl reaction solution containing 135 mM citric acid (pH 5.7) and 28 mM trehalose or trehalose analogs. […] The standard reaction was performed by adding 0.001 unit of trehalase into 50 μl reaction solution containing 135 mM citric acid (pH 5.7) and 44.8 mM α-D-lactulose, 44.8 mM α-D-melibiose, 0.2 μM validamycin A, or 0.2 μM validoxylamine A. Trehalase was incubated with analog for 30 min at 37° C., and the reaction was then started by addition of trehalose. After incubation at 37° C. for 2 hr, the reaction was terminated by heating the mixture in boiling water for 15 min. The activity of trehalase was assayed by measuring the amount of glucose produced from trehalose. The amount of carbohydrates after each enzymatic reaction was measured using a high-performance liquid chromatography (HPLC) system (Schambeck SFD 2100) equipped with an refractive index (RI) detector (SFD, RI 2000) at a flow rate of 1 ml/min. A carbohydrate analysis column (Shodex SUGAR SZ5532, 6.0 mm ID×150 mm L) equilibrated with 75% acetonitrile, 24% Milli-Q water, and 1% formic acid was used. The RI detector and column oven temperature were set to 40 and 60° C., respectively.
Hydrolysis of trehalose, lactulose and melibiose (28 mM) was tested using porcine kidney trehalase (1 mU).

Compound | Inhibition of trehalase activity (glucose generated from trehalose) ([2]; 44.8 mM analog) | Inhibition of trehalase activity (glucose generated from trehalose) ([2]; 0.2 μM inhibitor) | further results
O=C(CCCCCCC(=O)Nc1ccccc1)NO [SAHA, suberoylanilide hydroxamic acid] | – | – | ATXN3/Q75 aggregation as compared to untreated cells (100%) [1]: 85%
OC[C@H]1O[C@@H](O[C@@H]2[C@@H](CO)O[C@](O)(CO)[C@H]2O)[C@H](O)[C@@H](O)[C@H]1O [lactulose, α-D-lactulose] | did not inhibit the trehalase activity | – | –
OC[C@H]1O[C@H](OC[C@H]2O[C@H](O)[C@H](O)[C@@H](O)[C@@H]2O)[C@H](O)[C@@H](O)[C@H]1O [melibiose, D-(+)-melibiose] | did not inhibit the trehalase activity | – | –
OCC1=C[C@@H](N[C@H]2C[C@H](CO)[C@@H](O[C@H]3O[C@@H](CO)[C@H](O)[C@@H](O)[C@@H]3O)[C@H](O)[C@H]2O)[C@H](O)[C@@H](O)[C@@H]1O [validamycin A] | – | can inhibit the trehalase activity | –
OCC1=C[C@H](N[C@H]2C[C@H](CO)[C@@H](O)[C@H](O)[C@H]2O)[C@H](O)[C@@H](O)[C@@H]1O [validoxylamine A] | – | can inhibit the trehalase activity | –
